Measured values taken from BindingDB's records for patent US20250326732 (Pretzel Therapeutics, 2025).
Blank lines part the entries; values can stand above or below the compound they belong to.

Target: DNA-directed RNA polymerase, mitochondrial (Homo sapiens, UniProt O00411)
Test: Biological/Biochemical Evaluation
Method: The ability of some compounds of the present invention to inhibit POLRMT were determined in a homogeneous TR-FRET Assay using high-throughput screening in a 384-well plate format. […] Detection of the product is facilitated by hybridization of two DNA-oligonucleotide probes to specific and adjacent sequences within the RNA product sequence. Upon annealing of the probes, two fluorophores are coupled directly to an acceptor nucleotide probe (ATTO647, 5′), or introduced via a coupled streptavidin with a biotinylated donor nucleotide probe (Europium cryptate) that is brought into sufficient proximity to serve as a fluorescence-donor-acceptor pair. […] The DNA template is restriction linearized proximal to the promotor 3′-end (pUC-LSP). […] No nucleotide triphosphate mix is added to negative control samples. Microplates with compounds to be tested in the assay are prepared from 10 mM compound stocks in 100% DMSO, equal amounts of DMSO without any compound are added to positive control and negative control samples.

Chain of DNA-directed RNA polymerase, mitochondrial (O00411 whole entry): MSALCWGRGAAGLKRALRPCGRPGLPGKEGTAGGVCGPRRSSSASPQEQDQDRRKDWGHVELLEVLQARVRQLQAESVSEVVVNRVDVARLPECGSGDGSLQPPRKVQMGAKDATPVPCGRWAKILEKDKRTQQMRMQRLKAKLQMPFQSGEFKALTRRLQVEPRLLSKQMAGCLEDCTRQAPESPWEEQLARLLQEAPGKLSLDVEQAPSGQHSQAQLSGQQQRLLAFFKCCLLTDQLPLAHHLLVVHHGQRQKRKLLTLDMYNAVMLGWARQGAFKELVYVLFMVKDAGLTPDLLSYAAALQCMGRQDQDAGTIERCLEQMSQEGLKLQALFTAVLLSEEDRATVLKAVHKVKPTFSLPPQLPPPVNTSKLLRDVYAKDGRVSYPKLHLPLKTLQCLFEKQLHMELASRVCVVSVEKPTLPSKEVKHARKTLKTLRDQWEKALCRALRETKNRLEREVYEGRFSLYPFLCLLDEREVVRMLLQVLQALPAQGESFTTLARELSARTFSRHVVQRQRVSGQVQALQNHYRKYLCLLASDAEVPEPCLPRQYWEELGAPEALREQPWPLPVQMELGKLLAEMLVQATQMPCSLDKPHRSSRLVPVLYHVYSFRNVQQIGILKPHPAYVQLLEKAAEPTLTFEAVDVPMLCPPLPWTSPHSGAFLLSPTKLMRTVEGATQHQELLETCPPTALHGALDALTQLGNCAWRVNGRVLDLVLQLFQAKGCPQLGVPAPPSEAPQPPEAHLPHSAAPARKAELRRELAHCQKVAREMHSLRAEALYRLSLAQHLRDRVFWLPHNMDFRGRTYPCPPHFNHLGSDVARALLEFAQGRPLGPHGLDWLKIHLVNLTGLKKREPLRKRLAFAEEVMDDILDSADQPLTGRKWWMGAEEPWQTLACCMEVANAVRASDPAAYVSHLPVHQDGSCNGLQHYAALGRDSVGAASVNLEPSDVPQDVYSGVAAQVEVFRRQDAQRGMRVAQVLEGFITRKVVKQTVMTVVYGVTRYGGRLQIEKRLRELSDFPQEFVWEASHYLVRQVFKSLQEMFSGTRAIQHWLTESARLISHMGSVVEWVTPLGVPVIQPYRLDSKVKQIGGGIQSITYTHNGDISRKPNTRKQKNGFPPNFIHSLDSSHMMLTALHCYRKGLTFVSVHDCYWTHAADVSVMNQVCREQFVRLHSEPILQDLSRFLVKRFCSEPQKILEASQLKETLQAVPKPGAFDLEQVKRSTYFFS

SMILES: COC=C(Cc1ccc2c(-c3ccccc3C)cc(=O)oc2c1)C(N)=O [US20250326732, Example 208]
IC50: 3 µM

SMILES: CNC(=O)C(C)=Cc1ccc2c(-c3ccccc3C)cc(=O)oc2c1 [US20250326732, Example 67]
IC50: 6 µM

SMILES: COC=C(Cc1ccc2c(-c3ccccc3C)cc(=O)oc2c1)C(N)=O [US20250326732, Example 207]
IC50: 17 µM

SMILES: CC(=Cc1ccc2c(-c3ccccc3C)cc(=O)oc2c1)C(=O)N(C)C [US20250326732, Example 65]
IC50: 17 µM

These reach a lower IC50. Values come first.

IC50: 2 µM
SMILES: COC=C(Nc1ccc2c(-c3ccccc3)cc(=O)oc2c1)C(N)=O [US20250326732, Example 198]

IC50: 0.9 µM
SMILES: C=C(Nc1ccc2c(-c3ccccc3C)cc(=O)oc2c1)C(N)=O [US20250326732, Example 189]

IC50: 0.9 µM
SMILES: CN(C=CC(N)=O)c1ccc2c(-c3ccc(F)cc3Cl)cc(=O)oc2c1 [US20250326732, Example 137]

IC50: 0.6 µM
SMILES: CC(=Cc1ccc2c(-c3ccccc3C)cc(=O)oc2c1)C(N)=O [US20250326732, Example 68]

IC50: 0.5 µM
SMILES: CNC(=O)C(C)=Cc1ccc2c(-c3ccccc3C)cc(=O)oc2c1 [US20250326732, Example 66]

IC50: 0.3 µM
SMILES: CC(=Cc1ccc2c(-c3ccccc3C)cc(=O)oc2c1)C(=O)N(C)C [US20250326732, Example 64]
